This note sets out measurements from US20240092799A1, “MNK INHIBITORS” (Hepagene Therapeutics (HK) Limited, priority 2020, published 2024).

Broadly, the IC50 is the midpoint of a concentration-inhibition curve.

Chain of MNK2 (Q9HBH9 whole entry): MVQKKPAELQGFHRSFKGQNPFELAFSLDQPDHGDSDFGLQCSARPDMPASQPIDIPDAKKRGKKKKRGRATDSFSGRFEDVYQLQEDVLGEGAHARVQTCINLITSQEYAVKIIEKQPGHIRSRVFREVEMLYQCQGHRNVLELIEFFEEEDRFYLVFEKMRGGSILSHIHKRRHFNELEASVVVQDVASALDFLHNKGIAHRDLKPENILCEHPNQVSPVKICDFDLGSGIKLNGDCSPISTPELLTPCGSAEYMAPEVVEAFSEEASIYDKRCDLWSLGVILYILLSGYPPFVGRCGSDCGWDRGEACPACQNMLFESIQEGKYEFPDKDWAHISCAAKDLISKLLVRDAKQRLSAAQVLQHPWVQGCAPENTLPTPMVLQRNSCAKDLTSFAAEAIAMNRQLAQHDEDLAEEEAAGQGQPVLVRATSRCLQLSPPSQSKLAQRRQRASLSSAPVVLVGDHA

This test has as its target MNK2 (Homo sapiens (Human), UniProt Q9HBH9). Put plainly: MNK Biochemical Enzymatic Assay (ADP-Glo), MNK2 binding assay. Here is the method: MNK Biochemical Enzymatic Assay. This protocol establishes the binding assays for MNK1 and MNK2 using ADP-Glo assay. MNK phosphorylates the substrate and converts ATP to ADP, which was detected by Envision and used to reflect the reminding activity of MNK. Reagents and equipment used in the assay are listed below, followed by the protocol.
• a) Add 50 μL compound to 384-well dilution plate • b) Dilute compound 1:3 in succession in DMSO for each column for 10+0 pts (refer to dilution plate map) • c) Transfer 0.1 μL diluted compound solution in each row to 384 assay plate using Echo, each column containing 2 replicates (refer to assay plate map) • d) Add 5 μL enzyme working solution to 384-well assay plate, centrifuge 1000 RPM for 1 min • e) Incubate at 25° C. for 15 min • f) Add 5 μL substrate working solution to initiate reaction • g) Incubate at 25° C. for 60 min • h) Add 10 μL ADP Glo reagent, centrifuge 1000 RPM for 1 min • i) Incubate at 25° C. for 60 min • j) Add 20 μL kinase detection reagent, centrifuge 1000 RPM for 1 min • k) Incubate at 25° C. for 60 min • l) Read on Envision for US LUM as RLU • m) Data analysis: IC50s were determined based on a non-linear regression analysis of data collected.
(In general: ADP-Glo first removes unused ATP, then detects ADP through luciferase.)
In the case of `O=C1NC2(CCCCC2)c2cc(Nc3ccncn3)sc21` [Compound X-A, 2′-(pyrimidin-4-ylamino)spiro[cyclohexane-1,4′-thieno[2,3-c]pyrrol]-6′(5′H)-one], the half-maximal inhibitory concentration (IC50) was 10 to 100 nM.
For the compound `O=C1NC2(CCCCC2)c2cc(Nc3cc(N[C@H]4CCC[C@@H]4O)ncn3)sc21` [Compound XXIII-X, 2′-((6-(((1S,2S)-2-hydroxycyclopentyl)amino)pyrimidin-4-yl)amino)spiro[cyclohexane-1,4′-thieno[2,3-c]pyrrol]-6′(5′H)-one], the IC50 fell in the range of 10 to 100 nM.
In the case of `Nc1ncnc(Nc2cc3c(s2)C(=O)NC32CCCCC2)c1Cl` [Compound XX, 2′-((6-Amino-5-chloropyrimidin-4-yl)amino)spiro[cyclohexane-1,4′-thieno[2,3-c]pyrrol]-6′(5′H)-one] it was 10 to 100 nM; in that of `O=C1NC2(CCCCC2)c2nc(Nc3cc(N[C@H]4CCCOC4)ncn3)sc21` [Compound XXVIII-D, (S)-2′-((6-((tetrahydro-2H-pyran-3-yl)amino)pyrimidin-4-yl)amino)spiro[cyclohexane-1,4′-pyrrolo[3,4-d]thiazol]-6′(5′H)-one], 10 to 100 nM; in that of `Cc1cc(Nc2cc(N[C@@H]3CCC[C@H]3O)ncn2)[n+]([O-])c2c1C(=O)NC21CCCCC1` [Compound XXIX-X, 2′-((6-(((1R,2R)-2-hydroxycyclopentyl)amino)pyrimidin-4-yl)amino)-4′-methyl-5′-oxo-5′,6′-dihydrospiro[cyclohexane-1,7′-pyrrolo[3,4-b]pyridine] 1′-oxide], 10 to 100 nM.
For `O=C1NC2(CCCCC2)c2cc(Nc3cc(N4CCCCC4)ncn3)sc21` [Compound XXIII-E, 2′-((6-(Piperidin-1-yl)pyrimidin-4-yl)amino)spiro[cyclohexane-1,4′-thieno[2,3-c]pyrrol]-6′(5′H)-one], the IC50 is > 1000 nM.
Then `Cc1cc(Nc2cc(NCC3CCCO3)ncn2)[n+]([O-])c2c1C(=O)NC21CCCCC1` (stereo not shown) [Compound XXIX-P, 4′-methyl-5′-oxo-2′-((6-(((tetrahydrofuran-2-yl)methyl)amino)pyrimidin-4-yl)amino)-5′,6′-dihydrospiro[cyclohexane-1,7′-pyrrolo[3,4-b]pyridine] 1′-oxide], with 10 to 100 nM; and `Cc1cc(Nc2cc(Nc3ccccc3F)ncn2)[n+]([O-])c2c1C(=O)NC21CCCCC1` [Compound XXIX-AI, 2′-((6-((2-fluorophenyl)amino)pyrimidin-4-yl)amino)-4′-methyl-5′-oxo-5′,6′-dihydrospiro[cyclohexane-1,7′-pyrrolo[3,4-b]pyridine] 1′-oxide], with 10 to 100 nM.
Compound `Cc1cc(Nc2ncnc3c2CCN3)[n+]([O-])c2c1C(=O)NC21CCCCC1` [Compound XXIX-AB, 2′-((6,7-dihydro-5H-pyrrolo[2,3-d]pyrimidin-4-yl)amino)-4′-methyl-5′-oxo-5′,6′-dihydrospiro[cyclohexane-1,7′-pyrrolo[3,4-b]pyridine] 1′-oxide] yielded an IC50 of 10 to 100 nM.
`Nc1cc(Nc2cc3c(s2)C(=O)NC32CCNCC2)ncn1` [Compound VIII-A, 2′-((6-aminopyrimidin-4-yl)amino)spiro[piperidine-4,4′-thieno[2,3-c]pyrrol]-6′(5′H)-one] showed a concentration for half-maximal inhibition (IC50) of 10 to 100 nM.
`O=C1NC2(CCCCC2)c2nc(Nc3cc(N[C@H]4C[C@H](O)C4)ncn3)sc21` [Compound XXVIII-N, Trans-2′-((6-(((1r,3r)-3-hydroxycyclobutyl)amino)pyrimidin-4-yl)amino)spiro[cyclohexane-1,4′-pyrrolo[3,4-d]thiazol]-6′(5′H)-one] came in with an IC50 of 10 to 100 nM.
Then `O=C1NC2(CCCCC2)c2nc(Nc3ccnc(Nc4ccccn4)c3)sc21` [Compound XXVIII-J, 2′-((2-(pyridin-2-ylamino)pyridin-4-yl)amino)spiro[cyclohexane-1,4′-pyrrolo[3,4-d]thiazol]-6′(5′H)-one], with 10 to 100 nM; and `Cc1cc(Nc2cc(N[C@H]3CCCOC3)ncn2)[n+]([O-])c2c1C(=O)NC21CCCCC1` [Compound XXIX-E, (S)-4′-methyl-5′-oxo-2′-((6-((tetrahydro-2H-pyran-3-yl)amino)pyrimidin-4-yl)amino)-5′,6′-dihydrospiro[cyclohexane-1,7′-pyrrolo[3,4-b]pyridine] 1′-oxide], with 10 to 100 nM.
Then `Cc1cc(Nc2cc(N[C@H]3CC[C@@H](O)C3)ncn2)[n+]([O-])c2c1C(=O)NC21CCCCC1` (relative stereo) [Compound XXIX-Y, 2′-((6-((cis-3-hydroxycyclopentyl)amino)pyrimidin-4-yl)amino)-4′-methyl-5′-oxo-5′,6′-dihydrospiro[cyclohexane-1,7′-pyrrolo[3,4-b]pyridine] 1′-oxide], with 10 to 100 nM.
`Cc1cc(Nc2cc(NC3CNC3)ncn2)[n+]([O-])c2c1C(=O)NC21CCCCC1` [Compound XXIX-Q, 2′-((6-(azetidin-3-ylamino)pyrimidin-4-yl)amino)-4′-methyl-5′-oxo-5′,6′-dihydrospiro[cyclohexane-1,7′-pyrrolo[3,4-b]pyridine] 1′-oxide] had an IC50 of 10 to 100 nM.
Then `O=C(Nc1cc(Nc2cc3c(s2)C(=O)NC32CCCCC2)ncn1)c1ccccc1` [Compound XX-E, N-(6-((6′-oxo-5′,6′-dihydrospiro[cyclohexane-1,4′-thieno[2,3-c]pyrrol]-2′-yl)amino)pyrimidin-4-yl)benzamide], with 10 to 100 nM.
For `Cc1cc(Nc2cc(NCC3CCOC3)ncn2)[n+]([O-])c2c1C(=O)NC21CCCCC1` (stereo not shown) [Compound XXIX-AV, 4′-methyl-5′-oxo-2′-((6-(((tetrahydrofuran-3-yl)methyl)amino)pyrimidin-4-yl)amino)-5′,6′-dihydrospiro[cyclohexane-1,7′-pyrrolo[3,4-b]pyridine] 1′-oxide], the IC50 is 10 to 100 nM.
Then `Cc1cc(Nc2cc(NC(=O)C3CCCC3)ncn2)[n+]([O-])c2c1C(=O)NC21CCCCC1` [Compound XXIX-G, 2′-((6-(cyclopentanecarboxamido)pyrimidin-4-yl)amino)-4′-methyl-5′-oxo-5′,6′-dihydrospiro[cyclohexane-1,7′-pyrrolo[3,4-b]pyridine] 1′-oxide], with 0.1 to 10 nM; and `CSc1ncc2c(-c3cc4c(s3)C(=O)NC43CCCCC3)n[nH]c2n1` [Compound XIX, 2′-(6-(Methylthio)-1H-pyrazolo[3,4-d]pyrimidin-3-yl)spiro[cyclohexane-1,4′-thieno[2,3-c]pyrrol]-6′(5′H)-one], with 100 to 1000 nM; and `Cc1cc(Nc2cc(NC3CCS(=O)(=O)C3)ncn2)[n+]([O-])c2c1C(=O)NC21CCCCC1` (stereo not shown) [Compound XXIX-AR, 2′-((6-((1,1-dioxidotetrahydrothiophen-3-yl)amino)pyrimidin-4-yl)amino)-4′-methyl-5′-oxo-5′,6′-dihydrospiro[cyclohexane-1,7′-pyrrolo[3,4-b]pyridine] 1′-oxide], with 100 to 1000 nM.
Consider `O=C1NC2(CCCCC2)c2cc(Nc3cc(Cl)ncn3)sc21` [Compound XXIII-G, 2′-((6-Chloropyrimidin-4-yl)amino)spiro[cyclohexane-1,4′-thieno[2,3-c]pyrrol]-6′(5′H)-one], for which the IC50 fell in the range of 10 to 100 nM.
In the case of `O=C1NC2(CCCCC2)c2cc(Nc3ncnc4sc5c(c34)CCC(C(=O)O)C5)sc21` (stereo not shown) [Compound XXV-6, 4-((6′-Oxo-5′,6′-dihydrospiro[cyclohexane-1,4′-thieno[2,3-c]pyrrol]-2′-yl)amino)-5,6,7,8-tetrahydrobenzo[4,5]thieno[2,3-d]pyrimidine-7-carboxylic acid] it was 10 to 100 nM.
In the case of `O=C1NC2(CCCCC2)c2cc(Nc3ncnc4sc5c(c34)CCCC5)sc21` [Compound XXIII-F, 2′-((5,6,7,8-Tetrahydrobenzo[4,5]thieno[2,3-d]pyrimidin-4-yl)amino)spiro [cyclohexane-1,4′-thieno[2,3-c]pyrrol]-6′(5′H)-one] it was 10 to 100 nM; in that of `O=C1NC2(CCCCC2)c2cc(Nc3cc(N[C@@H]4CCOC4)ncn3)sc21` [Compound XXIV-M, (R)-2′-((6-((tetrahydrofuran-3-yl)amino)pyrimidin-4-yl)amino)spiro[cyclohexane-1,4′-thieno[2,3-c]pyrrol]-6′(5′H)-one], 10 to 100 nM; in that of `CCOC(=O)C1CCc2c(sc3ncnc(Nc4cc5c(s4)C(=O)NC54CCCCC4)c23)C1` (stereo not shown) [Compound XXV-5, Ethyl 4-((6′-oxo-5′,6′-dihydrospiro[cyclohexane-1,4′-thieno[2,3-c]pyrrol]-2′-yl)amino)-5,6,7,8-tetrahydrobenzo[4,5]thieno[2,3-d]pyrimidine-7-carboxylate], 100 to 1000 nM.
Then `O=C1NC2(CCCCC2)c2cc(Nc3cc(NC(=O)C4CCNC4)ncn3)sc21` (stereo not shown) [Compound XXIII-V, N-(6-((6′-oxo-5′,6′-dihydrospiro[cyclohexane-1,4′-thieno[2,3-c]pyrrol]-2′-yl)amino)pyrimidin-4-yl)pyrrolidine-3-carboxamide], with 10 to 100 nM.
`Cc1cc(Nc2cc(NC(=O)N(C)C)ncn2)[n+]([O-])c2c1C(=O)NC21CCCCC1` [Compound XXIX-U, 2′-((6-(3,3-dimethylureido)pyrimidin-4-yl)amino)-4′-methyl-5′-oxo-5′,6′-dihydrospiro[cyclohexane-1,7′-pyrrolo[3,4-b]pyridine] 1′-oxide] registered an IC50 of 10 to 100 nM.
Then `O=C1NC2(CCCCC2)c2cc(Nc3cc(N4CCCC4)ncn3)sc21` [Compound XXIII-H, 2′-((6-(Pyrrolidin-1-yl)pyrimidin-4-yl)amino)spiro[cyclohexane-1,4′-thieno[2,3-c]pyrrol]-6′(5′H)-one], with > 1000 nM.
